# Assays:
# Type in all cases: physicochemical
# [1] = Effect of individual flavorings and sucrose on conversion of azithromycin form G to form A in pH 8.16 buffer; parameters: key: AC means all converted to form A; details: 18 mls pH 8.16 buffer, room temperature
# Experimental: To evaluate a proposed excipient, the active dose of the azithromycin was suspended with the desired amount of potential excipient in a 0.1 M phosphate buffer system adjusted to a pH of 8.16. The buffer system was created by dissolving 13.738 g of NaH2PO4.H2O in 900 ml of water, adjusting the pH to 8.16 with sodium hydroxide, and diluting the solution to 1 liter with water. The sample, once constituted with buffer, was then stored at room temperature for the desired constituted product shelf-life. The azithromycin product was then isolated through filtration, and the resulting solid filtrate analyzed by a Solid-State Nuclear Magnetic Resonance method described previously that allows for quantitation of the dihydrate form present.
# The effect of various individual flavoring components and of sucrose upon conversion of azithromycin form G to azithromycin dihydrate (form A), in suspensions, were evaluated as follows.
# An 820 mg dose of form G azithromycin was weighed and mixed with 200 mg of each flavoring or sucrose. The mass of each flavoring, used in this test, was chosen to match that of the anticipated required amount for effective flavoring in the constituted POS. In this example, five flavorings, specifically artificial crème de vanilla, B&C banana, Trusil banana, Trusil cherry and artificial grape were investigated in addition to sucrose. Each of the binary samples were then constituted with 18 mls of pH=8.16 buffer and stored for 1, 5 and 10-days at room temperature.
# A control suspension of azithromycin form G constituted with 18 mls of pH=8.16 buffer was run with each series of experiments using the same storage conditions. Upon completion of the constituted storage time period these samples were filtered to isolate drug product and analyzed using the SS-NMR method to quantify the amount of azithromycin dihydrate present.
# [2] = Stability of non-dihydrate azithromycin in suspension (POS formulation II or bulk drug in water); SS-NMR quantification of form A
# Experimental: The stability of various forms of non-dihydrate azithromycin, in water and in flavored oral suspensions, was evaluated. Specifically, non-dihydrate azithromycin forms G, M, N, F and J were separately used in POS formulation II. These POS formulations were constituted by mixing with 18 mls of water. The suspensions were then stored for 1, 5 and 10 days at either 5° C. or 30° C. Suspensions of bulk azithromycin forms G, M, N, F and J were also constituted with 18 mls of water and stored under the same conditions.
# Upon conclusion of the storage time period the suspensions were filtered and suspended solids collected as described previously.
# [3] = Effect of cyclodextrins on non-dihydrate azithromycin form conversion in constituted POS formulation II; details: 24 hours room temperature
# Experimental: The effect of adding a complexing agent such as cyclodextrin on the stability of non-dihydrate azithromycin forms G, M and F against conversion in a constituted POS formulation were evaluated.
# Forms G, M and F of azithromycin were formulated into POS formulation II. Various cyclodextrins were added to the POS formulation II and the resulting samples were constituted with 18 mls of water. The suspensions were then stored for 24 hours at room temperature. At the end of the storage time, the suspensions were filtered and the recovered solids were weighed and analyzed by SS-NMR to quantify the presence of azithromycin dihydrate (form A). The control samples were formulated into formulation II with non-dihydrate azithromycin form G, M and F without cyclodextrins and were constituted with water, stored, filtered and analyzed identically to the cyclodextrin samples described above. A control, which had no cyclodextrin was run with each series of experiments. The SS-NMR data are presented in Tables 10, 11, 12 and the results are given as weight percent (% wt), of the recovered azithromycin sample.
# [4] = Effects of flavoring components upon azithromycin form G conversion in constituted POS; details: room temperature, 24-hours
# Experimental: Standards of these identified solvent components were then used to investigate the source of the stability problem introduced by these flavorings. The estimated concentration of each solvent in a constituted POS was calculated based on the GC-MS quantification of the specified solvent in the flavorings. Aqueous solutions of each solvent/component were then created at these concentrations and 18 mls of each solvent-solution was used to constitute an unflavored POS formulation I sample using form G. The constituted drug suspensions were stored at room temperature for 24-hours, before being filtered and analyzed by SS-NMR for quantification of azithromycin form change over this interval. POS formulations I and II were constituted with 18 mls of water and stored identically to serve as controls for this experiment.
structure (smiles),measurement,setting,value
"CC[C@H]1OC(=O)[C@H](C)[C@@H](O[C@H]2C[C@@](C)(OC)[C@@H](O)[C@H](C)O2)[C@H](C)[C@@H](O[C@@H]2O[C@H](C)C[C@H](N(C)C)[C@H]2O)[C@](C)(O)C[C@@H](C)CN(C)[C@H](C)[C@@H](O)[C@]1(C)O [Form G, azithromycin sesquihydrate]",Δ % Form A,"[1]; 820 mg form G + 200 mg Artificial Crème de Vanilla Flavor, constituted 1 day, listed as form G, sesquihydrate",did not exhibit conversion
same,Δ % Form A,"[1]; 820 mg form G + 200 mg Artificial Crème de Vanilla Flavor, constituted 1 day, sesquihydrate",0%
same,Δ % Form A,"[1]; 820 mg form G + 200 mg Artificial Crème de Vanilla Flavor, constituted 5 days",4%
same,Δ % Form A,"[1]; 820 mg form G + 200 mg Artificial Crème de Vanilla Flavor, constituted 10 days",30%
same,Δ % Form A,"[1]; 820 mg form G + 200 mg Artificial Grape Flavor, constituted 1 day",57%
same,Δ % Form A,"[1]; 820 mg form G + 200 mg Artificial Grape Flavor, constituted 5 days",75%
same,Δ % Form A,"[1]; 820 mg form G + 200 mg Artificial Grape Flavor, constituted 10 days",AC
same,Δ % Form A,"[1]; 820 mg form G + 200 mg B&C Banana Flavor, constituted 1 day, listed as form G, sesquihydrate",did not exhibit conversion
same,Δ % Form A,"[1]; 820 mg form G + 200 mg B&C Banana Flavor, constituted 1 day, sesquihydrate",0%
same,Δ % Form A,"[1]; 820 mg form G + 200 mg B&C Banana Flavor, constituted 5 days",27%
same,Δ % Form A,"[1]; 820 mg form G + 200 mg B&C Banana Flavor, constituted 10 days",AC
same,Δ % Form A,"[1]; 820 mg form G + 200 mg Sucrose, constituted 1 day",2%
same,Δ % Form A,"[1]; 820 mg form G + 200 mg Sucrose, constituted 5 days",1%
same,Δ % Form A,"[1]; 820 mg form G + 200 mg Sucrose, constituted 10 days, listed as form G, sesquihydrate",only minimal conversion
same,Δ % Form A,"[1]; 820 mg form G + 200 mg Sucrose, constituted 10 days, sesquihydrate",6%
same,Δ % Form A,"[1]; 820 mg form G + 200 mg Trusil Banana Flavor, constituted 1 day",32%
same,Δ % Form A,"[1]; 820 mg form G + 200 mg Trusil Banana Flavor, constituted 5 days",57%
same,Δ % Form A,"[1]; 820 mg form G + 200 mg Trusil Banana Flavor, constituted 10 days",AC
same,Δ % Form A,"[1]; 820 mg form G + 200 mg Trusil Cherry Flavor, constituted 1 day",32%
same,Δ % Form A,"[1]; 820 mg form G + 200 mg Trusil Cherry Flavor, constituted 5 days",75%
same,Δ % Form A,"[1]; 820 mg form G + 200 mg Trusil Cherry Flavor, constituted 10 days",AC
same,"% A (azithromycin dihydrate, form A, of recovered azithromycin)","[2]; Bulk Drug in 18 mls water, 5° C., Day 1",1%
same,"% A (azithromycin dihydrate, form A, of recovered azithromycin)","[2]; Bulk Drug in 18 mls water, 5° C., Day 5",6%
same,"% A (azithromycin dihydrate, form A, of recovered azithromycin)","[2]; Bulk Drug in 18 mls water, 5° C., Day 10",12%
same,"% A (azithromycin dihydrate, form A, of recovered azithromycin)","[2]; Bulk Drug in 18 mls water, 30° C., Day 1",3%
same,"% A (azithromycin dihydrate, form A, of recovered azithromycin)","[2]; Bulk Drug in 18 mls water, 30° C., Day 5",26%
same,"% A (azithromycin dihydrate, form A, of recovered azithromycin)","[2]; Bulk Drug in 18 mls water, 30° C., Day 10",73%
same,"% A (azithromycin dihydrate, form A, of recovered azithromycin)","[2]; Formulation II constituted with 18 mls water, 5° C., Day 1",72%
same,"% A (azithromycin dihydrate, form A, of recovered azithromycin)","[2]; Formulation II constituted with 18 mls water, 5° C., Day 5",75%
same,"% A (azithromycin dihydrate, form A, of recovered azithromycin)","[2]; Formulation II constituted with 18 mls water, 5° C., Day 10",78%
same,"% A (azithromycin dihydrate, form A, of recovered azithromycin)","[2]; Formulation II constituted with 18 mls water, 30° C., Day 1",82%
same,"% A (azithromycin dihydrate, form A, of recovered azithromycin)","[2]; Formulation II constituted with 18 mls water, 30° C., Day 5",74%
same,"% A (azithromycin dihydrate, form A, of recovered azithromycin)","[2]; Formulation II constituted with 18 mls water, 30° C., Day 10",76%
same,% Form A,"[3]; POS Formulation II + Hydroxypropyl β-cyclodextrin 1.2 % w/w, Series 2, 18 mls water",4.0%
same,% Form A,"[3]; POS Formulation II + Hydroxypropyl β-cyclodextrin 11.1 % w/w, Series 3, 18 mls water",4.9%
same,% Form A,"[3]; POS Formulation II + Sulfobutylether β-cyclodextrin 1.2 % w/w, Series 2, 18 mls water",14.4%
same,% Form A,"[3]; POS Formulation II + Sulfobutylether β-cyclodextrin 11.1 % w/w, Series 3, 18 mls water",7.0%
same,% Form A,"[3]; POS Formulation II + α-cyclodextrin 1.2 % w/w, Series 1, 18 mls water",4.8%
same,% Form A,"[3]; POS Formulation II + β-cyclodextrin 1.2 % w/w, Series 2, 18 mls water",8.3%
same,% Form A,"[3]; POS Formulation II + γ-cyclodextrin 1.2 % w/w, Series 1, 18 mls water",13.4%
same,% Form A,"[3]; POS Formulation II, no cyclodextrin (Control), Series 1, 18 mls water",68.3%
same,% Form A,"[3]; POS Formulation II, no cyclodextrin (Control), Series 2, 18 mls water",46.5%
same,% Form A,"[3]; POS Formulation II, no cyclodextrin (Control), Series 3, 18 mls water",67.9%
same,% Form A,[4]; Formulation I constituted with 18 mL 0.002 mg/ml ethyl ester propanoic acid,0%
same,% Form A,[4]; Formulation I constituted with 18 mL 0.025 mg/ml 3-methyl-1-butanol,0%
same,% Form A,[4]; Formulation I constituted with 18 mL 0.043 mg/ml isoamyl isovalerate,13%
same,% Form A,[4]; Formulation I constituted with 18 mL 0.144 mg/ml 2-methyl-butyl acetate,0%
same,% Form A,[4]; Formulation I constituted with 18 mL 0.197 mg/ml ethyl acetate,0%
same,% Form A,[4]; Formulation I constituted with 18 mL 0.587 mg/ml benzaldehyde,0%
same,% Form A,[4]; Formulation I constituted with 18 mL 0.785 mg/ml 3-methyl-butyl acetate + 0.562 mg/ml benzaldehyde,11%
same,% Form A,[4]; Formulation I constituted with 18 mL 0.815 mg/ml 3-methyl-butyl acetate,2%
same,% Form A,"[4]; Formulation I constituted with 18 mL Water, listed as form G, sesquihydrate",no conversion
same,% Form A,"[4]; Formulation I constituted with 18 mL Water, sesquihydrate",0%
same,% Form A,"[4]; Formulation II constituted with 18 mL Water, listed as form G, sesquihydrate",approximately 71%
same,% Form A,"[4]; Formulation II constituted with 18 mL Water, sesquihydrate",71%

# Reference: patent US20100048498A1, “STABLE NON-DIHYDRATE AZITHROMYCIN ORAL SUSPENSIONS” (priority 2004, published 2010)
